Data from patent US7598244B2, “[1,2,4]triazolo[1,5,a]pyrimidin-2-ylurea derivative and use thereof” (Nippon Kayaku Kabushiki Kaisha, priority 2003, dated 2009).

Assays:
[1] = system: human dendritic cells cultured with human allogenic T cells; test: Effect on the ability of human dendritic cells to induce the growth of allogenic T cells ([3H]-thymidine incorporation); type: cell-based; conditions: Homo sapiens; dendritic cells treated 3 days with test compound and TNF-α, then 5 days with allogenic T cells; read-out: IC50 (inhibition of DNA synthesis of lymphocytes)
Method: Effect on the Ability of Human Dendritic Cells to Induce the Growth of Allogenic T Cells
Immature dendritic cells were cultured with a test compound and TNF-α for 3 days by the same method as that described in Test Example 2. The obtained dendritic cells (2.5×10^3 cells/50 μl/well) were cultured together with human allogenic T cells (2.0×10^5 cells/150 μl/well) in a 96-well flat bottom plate at 37° C. for 5 days in an incubator containing 5% carbon dioxide. Thereafter, [^3H]-thymidine (Amersham Pharmacia Biotech) was added thereto at an amount of 1 μCi/10 μl/well, 16 hours before completion of the culture. After completion of the culture, cells were captured on a glass filter using a cell harvester (Skatron Instrument) and then dried. Thereafter, Scintillator ACS-II (Amersham Pharmacia Biotech) was added thereto, and the radioactivity of [^3H]-thymidine incorporated into the cells were then measured using a liquid scintillation counter. The inhibition rate of the DNA synthesis of lymphocytes was calculated using the following formula (3). Thereafter, the concentration of a test compound necessary for inhibition of 50% (IC50 value) was obtained.
[formula] • Eexp: The amount of [^3H]-thymidine incorporated into cultured cells containing test compound • Cexp: The amount of [^3H]-thymidine incorporated into cultured cells containing no test compounds

[2] = system: MHC class I molecules of T1 cells (human lymphoma cell line 174×CEM.); test: Effect on expression of MHC class I from T1 cells (flow cytometry, MFI); type: cell-based; conditions: 3 days culture
How it was run: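 EC20 is the compound level that lowers MHC class I MFI by 20% relative to compound-free cultures. Read-out was flow cytometry after FITC W6/32 staining.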

[3] = system: MHC class I molecules of human peripheral blood-derived dendritic cells; test: Effect on expression of MHC class I molecules from human peripheral blood-derived dendritic cells; type: cell-based; conditions: dendritic cells matured with TNF-α, 3 days; read-out: EC50 (reduction of 50% of the number of cells wherein MHC class I molecules were highly expressed)
Source text: Effect on Expression of MHC Class I Molecules from Human Peripheral Blood-Derived Dendritic Cells
Monocytes were isolated from human peripheral blood by the specific gravity centrifugation method. Thereafter, using mouse anti-human CD14 antibody-binding microbeads and a magnetic cell separation system (Miltenyi Biotec), CD14 positive cells were separated from the peripheral blood monocytes. The separated CD14 positive cells were suspended in an RPMI 1640 medium containing 10% FBS, and the suspension was then inoculated in a 6-well plate, resulting in a concentration of 1.0×10^6 cells/well. It was cultured at 37° C. for 20 minutes in an incubator containing 5% carbon dioxide. […] Thereafter, RPMI 1640 containing a 500 U/ml human recombinant […] (hereinafter referred to as GM-CSF; Anapure Bioscientific), 50 ng/ml human recombinant interleukin 4 (hereinafter referred to as IL-4; Pepro Tech), and 10% FBS, was added to the remaining suspension at a concentration of 2 ml/well. The obtained mixture was then cultured at 37° C. in an incubator containing 5% carbon dioxide. When adhesive CD14 positive cells are cultured in the presence of GM-CSF and IL-4, the CD14 positive cells were differentiated into non-adhesive immature dendritic cells. After the cells had been cultured for 7 days, non-adhesive cells were recovered to obtain immature dendritic cells. Using a 6-well plate, the immature dendritic cells (2.5×10^5 cells/well) were cultured in RPMI 1640 containing a 100 U/ml human recombinant tumor necrosis factor-α (hereinafter referred to as TNF-a; Pepro Tech), a test compound, and 10% FBS, at 37° C. for 3 days in an incubator containing 5% carbon dioxide. The dendritic cells became mature as a result of the presence of TNF-α, but in the present test, a test compound was allowed to simultaneously act on the cells. The mature dendritic cells were then stained with fluoroisothiocyanate-labeled mouse anti-human MHC class I monoclonal antibody (an antibody generated from the cell line W6/32 (ATCC No. CRL 1991)). The rate of the number of cells wherein MHC class I molecules were highly expressed to the total number of cells was measured by flow cytometry. The reduction rate of the number of cells wherein MHC class I molecules were highly expressed was calculated using the following formula (2), and the concentrations of test compounds necessary for reduction of 50% (EC50 values) were obtained.
[formula] • Eexp: (The number of cells, wherein MHC class I molecules are highly expressed, in cultured cells containing test compound)/(the total number of cells) • Cexp: (The number of cells, wherein MHC class I molecules are highly expressed, in cultured cells containing no test compounds)/(the total number of cells)

BALB/c mice = test: Effect on mouse plaque forming cells (PFCs) to sheep erythrocytes; type: in vivo; conditions: Intraperitoneal, 25 mg/kg/single administration, twice a day for 4 days
Method: Effect on Mouse Plaque Forming Cells (PFCs)
Sheep erythrocytes (Nippon Seibutsu Zairyo Center, Co., Ltd.) were intraperitoneally administered to each of BALB/c mice (Charles River Japan, Inc.; female; 8-week-old) at an amount of 1.0×10^8 cells. Thereafter, a test compound was administered thereto twice a day for 4 days after the first administration (only once on the first day) (n=4). On the day subsequent to completion of the administration of the test compound, splenic cells were prepared from the mouse, and the number of PFCs to the sheep erythrocytes was counted by the method of Cunninham (Cunninham, A. J. et al., Immunology, vol. 14, p. 599 (1968)). The number of PFCs per number of splenic cells of 1.0×10^6 was obtained. The reduction rate of the number of PFC in the mouse to which the test compound had been administered, to the number of PFCs in a control mouse to which the test compound had not been administered but only a solvent had been administered, was calculated using the following formula (4).
[formula] • Eexp: The number of PFCs per 1×10^6 splenic cells of mouse to which test compound was administered • Cexp: The number of PFCs per 1×10^6 splenic cells of mouse to which solvent was administered

BDF1 mice = test: Effect on graft versus host (GVH) reaction, spleen weight measurement method; type: in vivo, mouse; conditions: subcutaneous, twice a day for 7 days
Method: Effect on Graft Versus Host (GVH) Reaction
The effect of the compound on the GVH reaction was determined in accordance with the spleen weight measurement method of Simonsen et al. (Simonsen et al., Annals of the New York Academy of Sciences, p. 73 (1978)). Splenic cells were prepared from C57BL/6 mice (Charles River Japan, Inc.; female; 10-week-old), and the cells (5.0×10^6 cells) were transferred into the abdominal cavity of each of BDF1 mice (Charles River Japan; […]). From the day of transferring of the above cells, the test compound having each diluted concentration or a 5% glucose solution used as a solvent was subcutaneously administered to the BDF1 mice twice a day for 7 consecutive days. Eight days after the transferring of the above cells, the spleen weight of each of the BDF1 mice was measured. The reduction rate of the spleen weight was calculated using the following formula (6). The amount of the test compound necessary for reduction of 50% (ED50 value) was obtained.
[formula] • Eexp: Spleen weight of mouse to which test compound was administered • Cexp: Spleen weight of mouse to which solvent was administered

EC50 [3] [nM]	Structure (SMILES)	IC50 [1] [nM]	EC20 (concentration necessary for suppressing 20% of the expression level of MHC class I molecules) [2] [nM]	Reduction rate (%) of number of PFCs (BALB/c mice) [%]	Inhibition rate (%) (reduction rate of the spleen weight) (BDF1 mice; 25 × 2 mg/kg/single administration)	Inhibition rate (%) (reduction rate of the spleen weight) (BDF1 mice; 50 × 2 mg/kg/single administration)
200	COc1ccc(-c2ccnc3nc(NC(=O)N[C@H]4CC[C@H](O)CC4)nn23)cc1 [Example 037]	1360	200	31.2	–	–
540	COc1ccc(-c2ccnc3nc(NC(=O)NCc4cccnc4)nn23)cc1 [Example 039]	1520	300	–	14.1	29.5
